Results from US8367098B2, “Unique combinations of antimicrobial compositions” (The Population Council, Inc., priority 2002, dated 2013).

Key:
[1] = Diffusion of NES through dialysis membrane (HPLC); type: physicochemical; settings: membrane cutoff 1000, HPLC
Description: We examined diffusion of NES through a dialysis membrane with a molecular weight cutoff of 1000. The molecular weight of NES is 370. […] Results are illustrated in FIG. 10. […] However, the rate of diffusion observed through the dialysis membrane cannot be related to the rate of diffusion that would be observed in the human vagina as the rate of diffusion was dependant on the surface area of the dialysis bag. Conditions in the vagina would be different.
Diffusion of NES from CARRA/NES was investigated by two different methods, membrane dialysis and Ultrafree-15 centrifugation. In the membrane dialysis experiments, the membrane cutoff is 1,000, and diffusion of NES was measured by HPLC. […] In the Ultrafree-15 centrifugation experiments, a Millipore, Ultrafree-15 centrifugal filter and tube assembly was employed, which allows the passage of molecules of a MW<500 pass through; NES MW is 370.

HIV-1 = settings: p24 ELISA and RT; cited from earlier work
[2] = in vivo; cited from earlier work
[3] = in vivo, po; cited from earlier work

Molecule	effect on HIV-1 production (HIV-1)	further results
C=C1C[C@H]2[C@@H]3CCC4=CC(=O)CC[C@@H]4[C@H]3CC[C@]2(C)[C@@]1(OC(C)=O)C(C)=O [NES, 16-methylene-17α-acetoxy-19-norpregn-4-ene-3,20-dione]	–	diffusion of NES through dialysis membrane [1]: diffused from the dialysis bag at a constant rate
CC(=O)[O-].CC(=O)[O-].[Cd+2] [cadmium acetate]	inhibited HIV-1 production	–
[Cl][Hg][Cl] [mercury chloride]	inhibited HIV-1 production	–
[Cl-].[Cl-].[Zn+2] [zinc chloride]	inhibited HIV-1 production	–
Carrageenan	–	toxicity by oral, dermal, and inhalation routes [2]: non-toxic; absorption from the gastrointestinal tract [3]: virtually non-existent
